Measured values taken from US10604552B2, “Generation of novel metabolite-responsive transcription regulator biosensors” (NORTHWESTERN UNIVERSITY, priority 2016, dated 2020).

Tested on: TOP10 Escherichia coli cells
Type: cell-based
Conditions: 100 mM maltose; SP biosensor with No Sites or Go66 reporter
Protocol: All experiments were conducted in TOP10 Escherichia coli cells (F-mcrA Δ(mrr-hsdRMS-mcrBC) φ80lacZAM15 ΔlacX74 nupG recAl araD139 Δ(ara-leu)7697 galE15 galK16 rpsL(Str^R) endA1 λ^−) (Life Technologies). Cells were maintained in Lysogeny Broth (LB) Lennox formulation (10 g/L of tryptone, 5 g/L of yeast extract, 5 g/L of NaCl) supplemented with appropriate antibiotics (Ampicillin 100 μg/mL or Kanamycin 50 μg/mL). All experimental analysis was conducted in M9 minimal media (1×M9 salts, 0.2% Casamino Acids, 2 mM MgSO^4, 0.1 mM CaCl^2, 1 mM Thiamine HCl) containing glycerol (0.4%) as the primary carbon source. 1% arabinose and variable amounts of maltose monohydrate and isopropyl β-D-1-thiogalactopyranoside (IPTG) were added as indicated. M9 medium containing both Ampicillin and Kanamycin was used to maintain the strains that contained both a reporter plasmid and a biosensor plasmid.
Cultures were inoculated from single colonies into 2 mL of M9 media and grown overnight to stationary phase. Overnight cultures were diluted 1:20 and grown into exponential phase (OD600˜0.5). […] Plates with lids were incubated and shaken in a continuous double orbital pattern at 548 cpm (2 mm) inside a BioTek Synergy H1 plate reader for 10 h with GFP, mCherry, and OD600 measurements taken every 15 min. […]

`OC[C@H]1O[C@H](O[C@H]2[C@H](O)[C@@H](O)C(O)O[C@@H]2CO)[C@H](O)[C@@H](O)[C@@H]1O` (mixture of isomers) [maltose] was tested, and the “impact on cell growth” value was “did not substantially impact cell growth”.
